Results published in patent publication US7115624B1, “Method of inhibiting protein tyrosine phosphatase 1B and/or T-cell protein tyrosine phosphatase 4 and/or other PTPases with an Asp residue at position 48” (Novo Nordisk A/S, priority 1999, dated 2006).
Positions count from the first letter of the chain named.

How the values were obtained:
Type in all cases: biochemical
[1] = target: T1, PTP1B (Homo sapiens, UniProt P18031); assay: PTPase inhibition, p-nitrophenyl phosphate substrate, Ki; settings: pH 7.0; wt (Table 4); read-out: Ki values, PTP1B wt
T1 sequence (P18031 1-321): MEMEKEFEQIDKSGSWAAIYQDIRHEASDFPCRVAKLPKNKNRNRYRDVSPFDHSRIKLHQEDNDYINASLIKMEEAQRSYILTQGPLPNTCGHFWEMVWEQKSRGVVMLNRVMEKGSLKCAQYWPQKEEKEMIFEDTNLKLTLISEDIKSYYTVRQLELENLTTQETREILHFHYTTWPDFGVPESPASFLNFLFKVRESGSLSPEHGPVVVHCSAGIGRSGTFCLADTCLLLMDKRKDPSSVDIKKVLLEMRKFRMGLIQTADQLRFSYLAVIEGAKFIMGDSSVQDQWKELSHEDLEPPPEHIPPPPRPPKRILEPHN
Description: The assay conditions are as follows. Appropriate concentrations of the compounds of the invention (e.g., 0.1 to 100 μM) are added to the reaction mixtures containing different concentrations of the substrate, p-nitrophenyl phosphate (range: 0.16 to 10 mM—final assay concentration). The buffer used was 50 mM HEPES pH 7.0, 100 mM sodium chloride, 0.1% (w/v) bovine serum albumin, 5 mM glutathione, and 1 mM EDTA. The reaction was started by addition of the enzyme and carried out in microtiter plates at 25° C. for 60 minutes. The reactions are stopped by addition of NaOH. […] The data are analyzed using nonlinear regression fit to classical Michaelis Menten enzyme kinetic models. Inhibition is expressed as Ki values in μM.

[2] = target: T2, PTP1B G259Q (Homo sapiens, UniProt P18031, G259Q); assay: Enzyme kinetic analysis with mutant PTPs, Ki; settings: pH 7.0
T2 sequence (P18031 1-435 G259Q): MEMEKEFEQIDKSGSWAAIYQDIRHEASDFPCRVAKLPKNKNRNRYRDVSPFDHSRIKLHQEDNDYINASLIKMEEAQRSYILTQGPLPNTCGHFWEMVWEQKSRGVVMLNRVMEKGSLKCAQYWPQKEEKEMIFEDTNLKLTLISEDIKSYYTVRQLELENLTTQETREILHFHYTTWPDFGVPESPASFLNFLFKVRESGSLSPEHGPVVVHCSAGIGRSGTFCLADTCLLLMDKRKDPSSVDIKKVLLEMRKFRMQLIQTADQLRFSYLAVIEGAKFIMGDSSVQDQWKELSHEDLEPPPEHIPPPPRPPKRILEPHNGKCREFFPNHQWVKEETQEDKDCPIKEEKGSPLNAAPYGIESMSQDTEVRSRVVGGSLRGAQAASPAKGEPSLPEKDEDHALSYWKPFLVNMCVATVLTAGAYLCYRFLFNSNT
Description: (§1) To test directly, whether the above compound was addressing the proposed region of PTP1B, Compound N was subjected to detailed enzyme kinetic analyses using a set of wildtype (wt) and mutant PTPs. Two enzymes, PTPα and PTPH1, were chosen as representatives for PTPs with bulky side chains in the 259 position. Using a combination of wt and PTP mutants it has previously been shown that Gln259 in PTPα, in addition to its direct effect, also indirectly influences the binding of inhibitors and substrates, most likely due to a negative influence on the rotational freedom of the side chain of Gln262 (Peters et al., J. Biol. Chem. 275: 18201–18209 (2000)). As described above, selectivity can be obtained by introducing a basic nitrogen into 2-(oxalylamino)-4,5,6,7-tetrahydrobenzo[b]thiophene-3-carboxylic acid that causes attraction in PTP1B due to salt bridge formation to Asp48 and repulsion against PTPs with an asparagine in the 48 position, such as PTPα. To analyze if the current approach based on steric hindrance is generally applicable, it was decided to include a PTP with an aspartic acid in position 48. PTPH1, which like PTP1B is an intracellular enzyme with one domain only, was selected for these studies. The results of these studies are shown below (Table 4).
(§2) The assay conditions are as follows.

[3] = target: T3, PTPH1 M259G (Homo sapiens, UniProt P26045, M883G); assay: Enzyme kinetic analysis with mutant PTPs, Ki; settings: pH 7.0
T3 sequence (P26045 628-913 M883G limits assumed): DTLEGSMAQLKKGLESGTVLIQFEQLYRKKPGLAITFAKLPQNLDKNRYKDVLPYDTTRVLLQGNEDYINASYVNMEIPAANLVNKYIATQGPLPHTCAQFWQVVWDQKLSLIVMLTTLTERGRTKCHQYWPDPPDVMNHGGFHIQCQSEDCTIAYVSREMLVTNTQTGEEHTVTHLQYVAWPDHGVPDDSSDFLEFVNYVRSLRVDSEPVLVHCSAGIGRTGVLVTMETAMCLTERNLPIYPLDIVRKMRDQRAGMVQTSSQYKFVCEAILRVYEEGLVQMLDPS
Description: as §1, §2

[4] = target: T4, PTP1B G259M (Homo sapiens, UniProt P18031, G259M); assay: Enzyme kinetic analysis with mutant PTPs, Ki; settings: pH 7.0
T4 sequence (P18031 1-435 G259M): T2 sequence (P18031 1-435 G259Q) with Q259M
Description: as §1, §2

[5] = target: T5, LAR (Homo sapiens, UniProt P10586); assay: PTPase inhibition, p-nitrophenyl phosphate substrate, Ki; settings: pH 7.0 (Table 5); read-out: Ki values, LAR
T5 sequence (P10586 1285-1907 limits assumed): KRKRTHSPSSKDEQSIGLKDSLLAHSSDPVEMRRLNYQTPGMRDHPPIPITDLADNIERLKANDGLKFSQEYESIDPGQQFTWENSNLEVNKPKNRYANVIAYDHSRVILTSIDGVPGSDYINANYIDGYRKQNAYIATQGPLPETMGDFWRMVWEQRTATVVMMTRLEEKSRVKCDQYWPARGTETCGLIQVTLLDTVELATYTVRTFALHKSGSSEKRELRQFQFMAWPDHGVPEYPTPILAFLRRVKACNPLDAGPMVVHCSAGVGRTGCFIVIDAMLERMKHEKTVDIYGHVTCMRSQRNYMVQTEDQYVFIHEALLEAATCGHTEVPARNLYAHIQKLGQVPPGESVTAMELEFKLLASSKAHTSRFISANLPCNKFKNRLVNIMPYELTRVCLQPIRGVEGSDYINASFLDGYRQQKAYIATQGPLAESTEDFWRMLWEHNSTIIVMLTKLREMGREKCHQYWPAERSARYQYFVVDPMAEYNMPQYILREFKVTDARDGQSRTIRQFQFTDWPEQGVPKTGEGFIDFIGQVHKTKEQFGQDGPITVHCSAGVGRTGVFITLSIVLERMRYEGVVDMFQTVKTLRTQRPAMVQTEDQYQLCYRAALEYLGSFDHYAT
Description: The compounds are evaluated for biological activity with a truncated form of PTP1B (corresponding to the first 321 amino acids), which was expressed in E. coli and purified to apparent homogeneity using published procedures well-known to those skilled in the art. The enzyme reactions are carried out using standard conditions essentially as described by Burke et al. (Biochemistry 35; 15989–15996 (1996)) incorporated by reference. […] Appropriate concentrations of the compounds of the invention (e.g., 0.1 to 100 μM) are added to the reaction mixtures containing different concentrations of the substrate, p-nitrophenyl phosphate (range: 0.16 to 10 mM—final assay concentration). The buffer used was 50 mM HEPES pH 7.0, 100 mM sodium chloride, 0.1% (w/v) bovine serum albumin, 5 mM glutathione, and 1 mM EDTA. The reaction was started by addition of the enzyme and carried out in microtiter plates at 25° C. for 60 minutes. The reactions are stopped by addition of NaOH. The enzyme activity was determined by measurement of the absorbance at 405 nm with appropriate corrections for absorbance at 405 nm of the compounds and p-nitrophenyl phosphate. The data are analyzed using nonlinear regression fit to classical Michaelis Menten enzyme kinetic models. Inhibition is expressed as Ki values in μM.

- Ki [1]: 0.4 µM
- Ki [2]: 65 µM
- Ki [3]: 12 µM
- Ki [4]: 55 µM
- Ki [5]: 120 µM
Structure (SMILES): O=C(O)C(=O)Nc1sc2c(c1C(=O)O)CCOC2COC1=NS(=O)(=O)c2ccccc21 (centres unmarked) [Compound N, 7-(1,1-dioxo-1H-benzo[d]isothiazol-3-yloxymethyl)-2-(oxalyl-amino)-4,7-dihyd ro-5H-thieno[2,3-c]pyran-3-carboxylic acid]
